By EC50 is commonly meant the concentration giving half of the maximal effect.

The experiment addresses T1, human apelin receptor (Homo sapiens, UniProt P35414).
T1 construct: expressed in transfected cells
T1 sequence (P35414 1-380): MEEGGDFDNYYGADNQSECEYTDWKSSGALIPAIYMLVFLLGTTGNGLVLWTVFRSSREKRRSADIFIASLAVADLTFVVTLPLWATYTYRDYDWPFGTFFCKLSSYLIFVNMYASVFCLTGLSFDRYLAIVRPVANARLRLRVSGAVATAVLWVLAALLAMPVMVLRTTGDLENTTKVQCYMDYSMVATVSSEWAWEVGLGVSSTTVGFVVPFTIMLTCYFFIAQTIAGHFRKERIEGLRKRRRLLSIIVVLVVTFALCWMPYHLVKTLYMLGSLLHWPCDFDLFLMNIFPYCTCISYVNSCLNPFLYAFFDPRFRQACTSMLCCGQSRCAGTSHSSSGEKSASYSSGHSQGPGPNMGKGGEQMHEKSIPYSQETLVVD
Briefly: Determination of agonism on the human apelin receptor by a calcium fluorescence assay (FLIPR). The format is cell-based. The conditions noted are these: HEK293 cells stably transfected with human apelin receptor and Giaq protein, Fluo-4 calcium fluorescence, read-out: EC50 (APJ agonism). Put shortly:
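Agonist EC50s come from peak intracellular calcium transients recorded by FLIPR Tetra, scaled to the 1 μM apelin-13 maximum per plate. Test system: HEK293 stably transfected with human apelin receptor plus Giaq, Fluo-4-loaded (4 μM, 1 h, 37 °C, pH 7.4 buffer with probenecid); ≥7 concentrations, triplicates.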
Turning to `CC1CCCCC1n1c(Cc2cccs2)nc2cc(C(=O)N[C@@H](CC3CCCCC3)C(=O)O)ccc21` (stereo partly drawn) [Example 15, (S)-3-Cyclohexyl-2-{[1-(2-methyl-cyclohexyl)-2-thiophen-2-ylmethyl-1H-benzoimidazole-5-carbonyl]-amino}-propionic acid], the EC50 was 0.254 µM.

In the case of `CCC(CC)n1c(Cc2cccs2)nc2cc(C(=O)N[C@@H](CC(C)C)C(=O)N3CC4CC3CN4Cc3ccc(C(F)(F)F)cc3)ccc21` (stereo partly drawn) [Example 350, 1-(1-Ethyl-propyl)-2-thiophen-2-ylmethyl-1H-benzoimidazole-5-carboxylic acid {(S)-3-methyl-1-[5-(4-trifluoromethyl-benzyl)-2,5-diaza-bicyclo[2.2.1]heptane-2-carbonyl]-butyl}-amide], the EC50 came to 29.1 µM.

As for `CCC(C)Cn1c(CC2CCCCC2)nc2cc(C(=O)N[C@@H](CC3CCCCC3)C(=O)O)ccc21` (stereo partly drawn) [Example 133, (S)-3-Cyclohexyl-2-{[2-cyclohexylmethyl-1-(2-methyl-butyl)-1H-benzoimidazole-5-carbonyl]-amino}-propionic acid], the EC50 is 2.35 µM.

With `CCC(CC)n1c(Cc2cccs2)nc2cc(C(=O)N[C@@H](CC(C)C)C(=O)N3CC[C@H](OCc4ccccc4)C3)ccc21` [Example 390, 1-(1-Ethyl-propyl)-2-thiophen-2-ylmethyl-1H-benzoimidazole-5-carboxylic acid [(S)-1-((S)-3-benzyloxy-pyrrolidine-1-carbonyl)-3-methyl-butyl]-amide], the EC50 turned out to be 10.9 µM.

Take `CCC(CC)n1c(Cc2cccs2)nc2cc(C(=O)N[C@@H](CC(C)C)C(=O)NCCCN3CCN(c4ccc(OC)cc4)CC3)ccc21` [Example 279, 1-(1-Ethyl-propyl)-2-thiophen-2-ylmethyl-1H-benzoimidazole-5-carboxylic acid ((S)-1-{3-[4-(4-methoxy-phenyl)-piperazin-1-yl]-propylcarbamoyl}-3-methyl-butyl)-amide]: the concentration for a half-maximal effect (EC50) worked out at 2.27 µM.

In the case of `CCC(CC)n1c(Cc2cccs2)nc2cc(C(=O)N[C@@H](CC(C)C)C(=O)NCCOc3ccccc3)ccc21` [Example 366, 1-(1-Ethyl-propyl)-2-thiophen-2-ylmethyl-1H-benzoimidazole-5-carboxylic acid [(S)-3-methyl-1-(2-phenoxy-ethylcarbamoyl)-butyl]-amide], the concentration giving a half-maximal response (EC50) was 16.5 µM.

Consider `CCOCCNC(=O)[C@H](CC(C)C)NC(=O)c1ccc2c(c1)nc(Cc1cccs1)n2C(CC)CC` [Example 383, 1-(1-Ethyl-propyl)-2-thiophen-2-ylmethyl-1H-benzoimidazole-5-carboxylic acid [(S)-1-(2-ethoxy-ethylcarbamoyl)-3-methyl-butyl]-amide], for which the EC50 stood at 2.12 µM.

Take `CCC(CC)n1c(Cc2cccs2)nc2cc(C(=O)N[C@H](CSc3nnc[nH]3)CC(C)C)ccc21` [Example 483, 1-(1-Ethyl-propyl)-2-thiophen-2-ylmethyl-1H-benzoimidazole-5-carboxylic acid [(S)-3-methyl-1-(4H-[1,2,4]triazol-3-ylsulfanylmethyl)-butyl]-amide]: the concentration giving a half-maximal response (EC50) was 2.08 µM.

For `CCC(CC)n1c(Cc2cccs2)nc2cc(C(=O)N[C@@H](CC(C)C)C(=O)NCC3CCN(CC(C)C)C3)ccc21` (stereo partly drawn) [Example 304, 1-(1-Ethyl-propyl)-2-thiophen-2-ylmethyl-1H-benzoimidazole-5-carboxylic acid {(S)-1-[(1-isobutyl-pyrrolidin-3-ylmethyl)-carbamoyl]-3-methyl-butyl}-amide], the concentration for a half-maximal effect (EC50) worked out at 0.461 µM.

As for `CC(C)C[C@H](NC(=O)c1ccc2c(c1)nc(Cc1ccsc1)n2C1CCCCC1)C(=O)O` [Example 152, (S)-2-[(1-Cyclohexyl-2-thiophen-3-ylmethyl-1H-benzoimidazole-5-carbonyl)-amino]-4-methyl-pentanoic acid], the EC50 came out at 3.95 µM.

Consider `CCC(C)Cn1c(CC2CCCCC2)nc2cc(C(=O)N[C@@H](CC(C)C)C(=O)O)ccc21` (stereo partly drawn) [Example 135, (S)-2-{[2-Cyclohexylmethyl-1-(2-methyl-butyl)-1H-benzoimidazole-5-carbonyl]-amino}-4-methyl-pentanoic acid], for which the half-maximal effective concentration (EC50) was determined as 3.8 µM.

With `CCC(CC)n1c(CC2CCCO2)nc2cc(C(=O)N[C@@H](CC3CCCCC3)C(=O)O)ccc21` (stereo partly drawn) [Example 151, (S)-3-Cyclohexyl-2-{[1-(1-ethyl-propyl)-2-(tetrahydro-furan-2-ylmethyl)-1H-benzoimidazole-5-carbonyl]-amino}-propionic acid], the 50% effective concentration (EC50) came out at 0.89 µM.

On to `CCCC[C@@H](CO)NC(=O)c1ccc2c(c1)nc(Cc1cccs1)n2C(CC)CC` [Example 199, 1-(1-Ethyl-propyl)-2-thiophen-2-ylmethyl-1H-benzoimidazole-5-carboxylic acid ((S)-1-hydroxymethyl-pentyl)-amide], for which the EC50 was 0.71 µM.

Consider `CCC(CC)n1c(Cc2cccs2)nc2cc(C(=O)N[C@@H](CC(C)C)C(=O)N3CCC(OC)CC3)ccc21` [Example 373, 1-(1-Ethyl-propyl)-2-thiophen-2-ylmethyl-1H-benzoimidazole-5-carboxylic acid [(S)-1-(4-methoxy-piperidine-1-carbonyl)-3-methyl-butyl]-amide], for which the half-maximal effective concentration (EC50) stood at 1.84 µM.

Take `CC(C)C[C@H](NC(=O)c1ccc2c(c1)nc(Cc1cccs1)n2C1CCCCC1)C(=O)O` [Example 108, (S)-2-[(1-Cyclohexyl-2-thiophen-2-ylmethyl-1H-benzoimidazole-5-carbonyl)-amino]-4-methyl-pentanoic acid]: the EC50 was determined as 1.06 µM.

As to `CCC(CC)n1c(Cc2cccs2)nc2cc(C(=O)N[C@@H](CC(C)C)C(=O)NCCc3ccccc3OC)ccc21` [Example 362, 1-(1-Ethyl-propyl)-2-thiophen-2-ylmethyl-1H-benzoimidazole-5-carboxylic acid {(S)-1-[2-(2-methoxy-phenyl)-ethylcarbamoyl]-3-methyl-butyl}-amide], the half-maximal effective concentration (EC50) was found to be 27.1 µM.

As to `CCC(CC)n1c(Cc2cccs2)nc2cc(C(=O)N[C@@H](CC(C)C)C(=O)N(C)CCc3ccccn3)ccc21` [Example 240, 1-(1-Ethyl-propyl)-2-thiophen-2-ylmethyl-1H-benzoimidazole-5-carboxylic acid {(S)-3-methyl-1-[methyl-(2-pyridin-2-yl-ethyl)-carbamoyl]-butyl}-amide], the EC50 was 0.614 µM.

`CCc1ccc(CC(NC(=O)c2ccc3c(c2)nc(Cc2cccs2)n3C(CC)CC)C(=O)O)cc1` (stereo not drawn) [Example 30, 3-(4-Ethyl-phenyl)-2-{[1-(1-ethyl-propyl)-2-thiophen-2-ylmethyl-1H-benzoimidazole-5-carbonyl]-amino}-propionic acid]: the EC50 was 2.2 µM.

As to `CCCC(CCO)NC(=O)c1ccc2c(c1)nc(Cc1cccs1)n2C(CC)CC` (single isomer, unassigned) [Example 470], the EC50 was 0.235 µM.

`CCC(CC)n1c(Cc2cccs2)nc2cc(C(=O)N[C@@H](CC(C)C)C(=O)NC3CCC3)ccc21` [Example 215, 1-(1-Ethyl-propyl)-2-thiophen-2-ylmethyl-1H-benzoimidazole-5-carboxylic acid ((S)-1-cyclobutylcarbamoyl-3-methyl-butyl)-amide]: the EC50 is 1.45 µM.

On to `CCCC(CC(=O)O)NC(=O)c1ccc2c(c1)nc(Cc1cccs1)n2[C@@H]1CCCC[C@H]1C` (single isomer, unassigned) [Example 458], for which the EC50 was 0.124 µM.

The values are drawn from US9156796B2, “Benzoimidazole-carboxylic acid amide derivatives as APJ receptor modulators” (SANOFI, priority 2013, dated 2015).
